Assay results taken from patent US20230293539A1, “MLL1-WDR5 PROTEIN-PROTEIN INTERACTION INHIBITOR COMPOUNDS AND USES THEREOF” (HUYABIO International, LLC, priority 2022, published 2023).

Legend:
HDAC2 = HDAC2 (Homo sapiens, UniProt Q92769); assay: Selectivity panel (Table 3); format: biochemical
Liver S9 stability assay [1] = format: in vitro ADME, mouse
Method: (§1) Liver S9 stability assay: Test compounds (1 μM) and positive control were incubated with 5 mM GSH and liver S9 (1 mg protein/ml) from multiple species (including human, monkey, dog, rat and mouse) at 37° C. at 0, 10, 30, and 60 minutes in duplicate. After adding the stop solution, 100 μL of supernatant were analyzed by LC-MS/MS. The % remaining of test compound, T1/2 (min), and CLint (μL/min/mg) were calculated and were reported.

TEAD1 = TEAD1 (Homo sapiens, UniProt P28347); assay: Selectivity panel (Table 3); format: binding
[2] = Metabolite ID in Liver S9; format: in vitro ADME; details: HBI-2375 and metabolites in Rat liver S9
in vitro [3] = details: rat, plasma
Liver S9 stability assay [4] = format: in vitro ADME, human
Method: as §1

SHP2 E76K = SHP2 E76K (Homo sapiens, UniProt Q06124, E76K); assay: Selectivity panel (Table 3); format: biochemical
[5] = Predicted brain concentrations based on mouse/rat PK/BBB data; details: Equivalent Human 6.5 mg/kg
Method: The ability of a compound of Formula (IIIb) (HBI_084 (HBI-2375)) to cross the BBB is determined in a population comprising one or more human subjects by orally (PO) or intravenously (IV) administering a pharmaceutical composition comprising a compound of Formula (IIIb) to the individual members of the population of human subjects at one or more doses described in Example 5. Blood samples and CSF are drawn from the subjects and compound concentrations are determined in the blood plasma and CSF of the subjects as described in Example 4. Pharmacokinetic parameters are determined by means analogous to those described in Examples 1-4. Doses for HBI-2375 may be based on a target concentration in subjects' brain predicted using the following table.

Liver S9 stability assay [6] = format: in vitro ADME, dog
Method: as §1

in vitro [7] = details: human, plasma
ATX = ATX (Homo sapiens, UniProt Q13822); assay: Selectivity panel (Table 3); format: biochemical
MV 411 cells = assay: Cell Viability Assay (CellTiter-Glo); format: cell-based; details: Homo sapiens, MV4-11, 72 hours, read-out: IC50 (anti-proliferative activity against leukemia cells)
SHP2 D61G = SHP2 D61G (Homo sapiens, UniProt Q06124, D61G); assay: Selectivity panel (Table 3); format: biochemical
BRD4-BD1 = molecular target: T1, BRD4-BD1 (Homo sapiens, UniProt O60885); assay: Selectivity panel (Table 3); format: binding
T1 construct: BRD4-BD1

WDR5 = WDR5 (Homo sapiens, UniProt P61964); assay: Selectivity panel (Table 3); format: binding
Liver S9 stability assay [8] = format: in vitro ADME, rat
Method: as §1

[9] = Metabolite ID in Liver S9; format: in vitro ADME; details: HBI-2375 and metabolites in Dog liver S9
[10] = Metabolite ID in Liver S9; format: in vitro ADME; details: HBI-2375 and metabolites in Mouse liver S9
in vitro [11] = details: cynomolgus monkey, plasma
SHP2 WT = SHP2 WT (Homo sapiens, UniProt Q06124); assay: Selectivity panel (Table 3); format: biochemical
KRAS G12D = KRAS G12D (Homo sapiens, UniProt P01116, G12D); assay: Selectivity panel (Table 3); format: binding
Chain of KRAS G12D (P01116 1-188 isoform P01116-2 G12D): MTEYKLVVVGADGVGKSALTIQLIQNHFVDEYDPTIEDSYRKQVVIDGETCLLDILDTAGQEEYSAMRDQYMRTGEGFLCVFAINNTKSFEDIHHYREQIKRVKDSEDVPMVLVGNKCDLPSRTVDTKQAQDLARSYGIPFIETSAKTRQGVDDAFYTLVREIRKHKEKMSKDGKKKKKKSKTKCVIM

Chain of SHP2 E76K (Q06124 whole entry E76K): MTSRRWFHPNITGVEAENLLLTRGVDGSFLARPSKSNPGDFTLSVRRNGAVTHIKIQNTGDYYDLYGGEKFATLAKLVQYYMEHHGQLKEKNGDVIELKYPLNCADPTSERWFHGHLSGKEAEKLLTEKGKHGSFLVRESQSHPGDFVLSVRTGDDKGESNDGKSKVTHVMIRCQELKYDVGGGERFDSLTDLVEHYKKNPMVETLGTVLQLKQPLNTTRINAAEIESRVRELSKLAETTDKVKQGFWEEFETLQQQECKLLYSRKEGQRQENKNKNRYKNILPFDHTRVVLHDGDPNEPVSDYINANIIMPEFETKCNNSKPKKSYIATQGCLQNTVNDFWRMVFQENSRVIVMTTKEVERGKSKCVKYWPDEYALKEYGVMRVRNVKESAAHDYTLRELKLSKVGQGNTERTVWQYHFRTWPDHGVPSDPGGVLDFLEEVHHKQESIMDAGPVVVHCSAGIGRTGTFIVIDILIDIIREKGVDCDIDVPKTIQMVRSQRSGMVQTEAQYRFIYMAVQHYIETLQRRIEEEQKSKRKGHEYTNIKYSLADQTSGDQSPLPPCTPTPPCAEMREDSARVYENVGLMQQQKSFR
Chain of SHP2 D61G (Q06124 whole entry D61G): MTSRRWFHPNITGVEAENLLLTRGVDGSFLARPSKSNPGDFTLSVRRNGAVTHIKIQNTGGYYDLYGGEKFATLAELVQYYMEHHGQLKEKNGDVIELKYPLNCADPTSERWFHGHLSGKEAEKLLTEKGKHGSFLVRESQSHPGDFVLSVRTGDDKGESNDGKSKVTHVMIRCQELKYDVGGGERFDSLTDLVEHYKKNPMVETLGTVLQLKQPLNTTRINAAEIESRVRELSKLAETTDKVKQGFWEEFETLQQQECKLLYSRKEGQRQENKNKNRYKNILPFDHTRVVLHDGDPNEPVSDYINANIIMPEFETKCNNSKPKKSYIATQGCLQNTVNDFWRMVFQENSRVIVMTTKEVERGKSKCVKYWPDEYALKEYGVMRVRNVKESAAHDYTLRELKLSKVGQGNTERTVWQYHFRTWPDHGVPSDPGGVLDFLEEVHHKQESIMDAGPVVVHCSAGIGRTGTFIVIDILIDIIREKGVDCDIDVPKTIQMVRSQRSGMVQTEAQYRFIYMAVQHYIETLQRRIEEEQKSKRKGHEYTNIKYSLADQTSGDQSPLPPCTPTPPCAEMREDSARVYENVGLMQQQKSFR
Chain of HDAC2 (Q92769 whole entry, species assumed): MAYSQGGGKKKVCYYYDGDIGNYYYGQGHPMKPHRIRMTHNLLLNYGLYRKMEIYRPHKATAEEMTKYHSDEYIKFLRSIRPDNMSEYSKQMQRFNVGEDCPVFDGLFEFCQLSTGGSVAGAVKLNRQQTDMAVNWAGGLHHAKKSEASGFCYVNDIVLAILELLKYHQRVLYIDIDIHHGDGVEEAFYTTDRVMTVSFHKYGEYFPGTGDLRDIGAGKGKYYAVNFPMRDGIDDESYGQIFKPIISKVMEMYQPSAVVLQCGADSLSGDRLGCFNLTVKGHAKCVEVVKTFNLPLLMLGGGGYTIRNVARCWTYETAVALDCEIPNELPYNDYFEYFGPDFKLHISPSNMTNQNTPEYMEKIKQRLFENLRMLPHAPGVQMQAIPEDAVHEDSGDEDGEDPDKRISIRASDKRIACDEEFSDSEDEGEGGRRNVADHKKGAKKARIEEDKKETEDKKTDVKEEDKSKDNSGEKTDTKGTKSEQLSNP
Chain of SHP2 WT (Q06124 whole entry): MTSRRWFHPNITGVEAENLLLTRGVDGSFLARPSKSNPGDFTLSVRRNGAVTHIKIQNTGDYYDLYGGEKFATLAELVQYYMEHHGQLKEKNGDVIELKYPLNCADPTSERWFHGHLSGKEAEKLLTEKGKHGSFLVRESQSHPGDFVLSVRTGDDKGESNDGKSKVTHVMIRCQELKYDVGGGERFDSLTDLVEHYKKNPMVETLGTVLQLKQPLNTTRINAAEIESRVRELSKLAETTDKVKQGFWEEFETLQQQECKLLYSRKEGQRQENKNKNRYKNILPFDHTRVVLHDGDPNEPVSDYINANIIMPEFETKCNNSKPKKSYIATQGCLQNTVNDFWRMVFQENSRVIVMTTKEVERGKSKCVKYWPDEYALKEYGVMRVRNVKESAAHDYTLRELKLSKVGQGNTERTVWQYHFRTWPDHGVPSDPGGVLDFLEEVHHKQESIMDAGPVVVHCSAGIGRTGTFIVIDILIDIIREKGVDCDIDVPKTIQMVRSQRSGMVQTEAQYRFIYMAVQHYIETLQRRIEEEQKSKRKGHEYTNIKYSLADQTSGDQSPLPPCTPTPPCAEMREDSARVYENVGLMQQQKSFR
Chain of TEAD1 (P28347 whole entry, species assumed): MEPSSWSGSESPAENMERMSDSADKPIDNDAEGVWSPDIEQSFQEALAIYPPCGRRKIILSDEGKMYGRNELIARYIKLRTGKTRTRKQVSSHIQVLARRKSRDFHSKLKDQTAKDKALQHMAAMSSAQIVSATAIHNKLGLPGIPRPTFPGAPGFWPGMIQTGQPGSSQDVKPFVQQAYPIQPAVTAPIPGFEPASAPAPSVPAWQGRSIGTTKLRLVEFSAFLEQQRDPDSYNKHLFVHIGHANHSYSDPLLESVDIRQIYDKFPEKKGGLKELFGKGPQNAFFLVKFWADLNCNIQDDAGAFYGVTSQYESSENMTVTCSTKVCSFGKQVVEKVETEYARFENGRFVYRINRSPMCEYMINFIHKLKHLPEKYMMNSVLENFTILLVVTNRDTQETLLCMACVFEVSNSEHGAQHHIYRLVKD

**Q.** For Cc1c(F)c(N)cc(C(=O)Nc2cc(-n3cc(C(=O)N4CCN(C)CC4)nn3)c(F)cc2N2C[C@@H](C)N(C)[C@@H](C)C2)c1Cl [HYBI-084, 5-amino-2-chloro-4-fluoro-N-(4-fluoro-5-(4-(4-methylpiperazine-1-carbonyl)-1H-1,2,3-triazol-1-yl)-2-((3S,5R)-3,4,5-trimethylpiperazin-1-yl)phenyl)-3-methylbenzamide], which IC50 (HDAC2) is on record?
**A.** The IC50 was greater than 1000 nM.

**Q.** What about the half-life at 1 μM (Liver S9 stability assay [1]; Mouse liver S9) of the same compound?
**A.** Its half-life at 1 μM is greater than 2.42 h.

**Q.** What about the microsomal CLint at 1 μM (Liver S9 stability assay [1]; Mouse liver S9) of the same compound?
**A.** Its microsomal CLint at 1 μM is less than 4.8 µL/min/mg.

**Q.** And the “% Remaining after 60 min incubation” value (Liver S9 stability assay [1]; Mouse liver S9, 1 μM, 5 mM GSH, 37° C.)?
**A.** The value was 110%.

**Q.** And the IC50 (TEAD1)?
**A.** The IC50 was greater than 1000 nM.

**Q.** And the “Relative Abundance (UV Peak Area % Total)” value [2]?
**A.** The value was 71.86%.

**Q.** And the fraction unbound (in vitro [3])?
**A.** Its fraction unbound is less than 0.07.

**Q.** And the half-life at 1 μM (Liver S9 stability assay [4]; Human liver S9)?
**A.** The half-life at 1 μM was greater than 2.42 h.

**Q.** What about the microsomal CLint at 1 μM (Liver S9 stability assay [4]; Human liver S9) of the same compound?
**A.** The microsomal CLint at 1 μM was less than 4.8 µL/min/mg.

**Q.** And the “% Remaining after 60 min incubation” value (Liver S9 stability assay [4]; Human liver S9, 1 μM, 5 mM GSH, 37° C.)?
**A.** Its value is 85.1%.

**Q.** What about the IC50 (SHP2 E76K) of the same compound?
**A.** The IC50 was greater than 1000 nM.

**Q.** And the “Predicted Mean Brain Concentration, Cmin = 24 h” value ([5]; estimated from repeated PO mouse)?
**A.** Its value is 11.1 ng/g.

**Q.** What about the “Predicted Mean Brain Concentration, Cmin = 24 h” value ([5]; estimated from single PO mouse) of the same compound?
**A.** Its value is 4.5 ng/g.

**Q.** What about the “Predicted Mean Brain Concentration, Cmin = 24 h” value ([5]; estimated from single PO rat) of the same compound?
**A.** The value was 3.6 ng/g.

**Q.** And the half-life at 1 μM (Liver S9 stability assay [6]; Dog liver S9)?
**A.** The half-life at 1 μM was greater than 2.42 h.

**Q.** And the microsomal CLint at 1 μM (Liver S9 stability assay [6]; Dog liver S9)?
**A.** The microsomal CLint at 1 μM was less than 4.8 µL/min/mg.

**Q.** And the “% Remaining after 60 min incubation” value (Liver S9 stability assay [6]; Dog liver S9, 1 μM, 5 mM GSH, 37° C.)?
**A.** Its value is 92.5%.

**Q.** And the fraction unbound (in vitro [7])?
**A.** Its fraction unbound is less than 0.07.

**Q.** And the IC50 (ATX)?
**A.** Its IC50 is greater than 1000 nM.

**Q.** And the IC50 (MV 411 cells)?
**A.** The IC50 was 3170 nM.

**Q.** And the IC50 (SHP2 D61G)?
**A.** Its IC50 is greater than 1000 nM.

**Q.** What about the IC50 (BRD4-BD1) of the same compound?
**A.** Its IC50 is greater than 1000 nM.

**Q.** What about the IC50 (WDR5) of the same compound?
**A.** The IC50 was 0.683 nM.

**Q.** And the half-life at 1 μM (Liver S9 stability assay [8]; Rat liver S9)?
**A.** The half-life at 1 μM was greater than 2.42 h.

**Q.** What about the microsomal CLint at 1 μM (Liver S9 stability assay [8]; Rat liver S9) of the same compound?
**A.** The microsomal CLint at 1 μM was less than 4.8 µL/min/mg.

**Q.** And the “% Remaining after 60 min incubation” value (Liver S9 stability assay [8]; Rat liver S9, 1 μM, 5 mM GSH, 37° C.)?
**A.** Its value is 80.1%.

**Q.** What about the “Relative Abundance (UV Peak Area % Total)” value [9] of the same compound?
**A.** Its value is 70.71%.

**Q.** What about the “Relative Abundance (UV Peak Area % Total)” value [10] of the same compound?
**A.** The value was 63.02%.

**Q.** What about the fraction unbound (in vitro [11]) of the same compound?
**A.** The fraction unbound was less than 0.24.

**Q.** And the IC50 (SHP2 WT)?
**A.** Its IC50 is greater than 1000 nM.

**Q.** And the IC50 (KRAS G12D)?
**A.** Its IC50 is greater than 1000 nM.
